Laboratory results from PMC10052868 (European journal of medicinal chemistry, 2022).
Entries after “also recorded” stand apart in the source; their conditions may differ. Counter-ions that a name gives are not always drawn.

Molecular target: PfPK6 (Plasmodium falciparum, UniProt Q8IDW1)
Test: KinaseSeeker split-luciferase assay on PfPK6
Format: binding, P. falciparum
Details: not given

SMILES | IC50
COc1cc2nccc(Oc3ccc(NC(=O)Nc4cc(C(F)(F)F)ccc4F)c(F)c3)c2cc1OC [Compound 40, 1-(4-((6,7-dimethoxyquinolin-4-yl)oxy)-2-fluorophenyl)-3-(2-fluoro-5-(trifluoromethyl)phenyl)urea] | < 5 nM
COc1cc2nccc(Oc3ccc(NC(=O)Nc4cccc(C(F)(F)F)c4)c(F)c3)c2cc1OC [Compound 39, 1-(4-((6,7-dimethoxyquinolin-4-yl)oxy)-2-fluorophenyl)-3-(3-(trifluoromethyl)phenyl)urea] | < 5 nM

Same assay, conditions: KinaseSeeker, 1 μM

SMILES | activity against PfPK6 in words
O=C(Nc1ccc(O)cc1F)Nc1ccc(F)cc1F [Compound 5, 1-(2,4-difluorophenyl)-3-(2-fluoro-4-hydroxyphenyl)urea] | completely inactive
O=C(Nc1ccc(F)cc1F)Nc1ccc(Oc2cnnc3ccccc23)cc1F [Compound 24, 1-(4-(cinnolin-4-yloxy)-2-fluorophenyl)-3-(2,4-difluorophenyl)urea] | complete loss of potency
COc1cc2nccc(Oc3ccc(N)c(F)c3)c2cc1OC [Compound 14, 4-((6,7-dimethoxyquinolin-4-yl)oxy)-2-fluoroaniline] | complete loss of activity
COc1cc2nccc(Oc3ccc(N)cc3)c2cc1OC [Compound 15, 4-((6,7-dimethoxyquinolin-4-yl)oxy)aniline] | complete loss of activity
COc1ccc(NC(=O)Nc2ccc(F)cc2F)c(F)c1 [Compound 6, 1-(2,4-difluorophenyl)-3-(2-fluoro-4-methoxyphenyl)urea] | completely inactive

Same assay, conditions: compared to 41

SMILES | fold drop in activity against PfPK6 compared to 41
COc1cc2nccc(Oc3ccc(NC(=O)Nc4ccc(N5CCN(C)CC5)cc4)c(F)c3)c2cc1OC [Compound 59, 1-(4-((6,7-dimethoxyquinolin-4-yl)oxy)-2-fluorophenyl)-3-(4-(4-methylpiperazin-1-yl)phenyl)urea] | 30 fold
COc1cc2nccc(Oc3ccc(NC(=O)Nc4ccc(NC5CCN(C)CC5)cc4)c(F)c3)c2cc1OC [Compound 65, 1-(4-((6,7-dimethoxyquinolin-4-yl)oxy)-2-fluorophenyl)-3-(4-((1-methylpiperidin-4-yl)amino)phenyl)urea] | 12 fold

Same assay, conditions: compared to Ki8751

SMILES | fold increase in potency against PfPK6 compared to Ki8751 | fold drop in potency against PfPK6 relative to Ki8751
COc1cc2nccc(Oc3ccc(NC(=O)Nc4ccc(F)cc4)c(F)c3)c2cc1OC [Compound 8, 1-(4-((6,7-dimethoxyquinolin-4-yl)oxy)-2-fluorophenyl)-3-(4-fluorophenyl)urea] | ≥ 3 fold | 
COc1cc2nccc(Oc3ccc(NC(=O)Nc4ccccc4)c(F)c3)c2cc1OC [Compound 9, 1-(4-((6,7-dimethoxyquinolin-4-yl)oxy)-2-fluorophenyl)-3-phenylurea] | ≥ 3 fold | 
O=C(Nc1ccc(F)cc1F)Nc1ccc(Oc2ccnc3ccccc23)cc1F [Compound 3, 1-(2,4-difluorophenyl)-3-(2-fluoro-4-(quinolin-4-yloxy)phenyl)urea] |  | 34 fold
COc1ccc2c(Oc3ccc(NC(=O)Nc4ccc(F)cc4F)c(F)c3)ccnc2c1 [Compound 1, 1-(2,4-difluorophenyl)-3-(2-fluoro-4-((7-methoxyquinolin-4-yl)oxy)phenyl)urea] |  | 3 fold
COc1cc2nccc(Oc3ccc(NC(=O)Nc4ccccc4F)c(F)c3)c2cc1OC [Compound 7, 1-(4-((6,7-dimethoxyquinolin-4-yl)oxy)-2-fluorophenyl)-3-(2-fluorophenyl)urea] | ≥ 3 fold | 
COc1ccc2nccc(Oc3ccc(NC(=O)Nc4ccc(F)cc4F)c(F)c3)c2c1 [Compound 2, 1-(2,4-difluorophenyl)-3-(2-fluoro-4-((6-methoxyquinolin-4-yl)oxy)phenyl)urea] |  | 15 fold

Same assay, conditions: compared to quinoline 3

SMILES | fold improvement in PfPK6 potency on replacing the quinoline
O=C(Nc1ccc(F)cc1F)Nc1ccc(Oc2ccnc3[nH]ccc23)cc1F [Compound 29, 1-(4-((1H-pyrrolo[2,3-b]pyridin-4-yl)oxy)-2-fluorophenyl)-3-(2,4-difluorophenyl)urea] | 4 fold

Same assay, conditions: read-out: PfPK6 activity remaining at 1 μM (%)

SMILES | remaining activity at 1 µM
O=C(Nc1ccc(O)cc1F)Nc1ccc(F)cc1F [Compound 5, 1-(2,4-difluorophenyl)-3-(2-fluoro-4-hydroxyphenyl)urea] | 100%
O=C(Nc1ccc(F)cc1F)Nc1ccc(Oc2cnnc3ccccc23)cc1F [Compound 24, 1-(4-(cinnolin-4-yloxy)-2-fluorophenyl)-3-(2,4-difluorophenyl)urea] | 100%
COc1cc2nccc(Oc3ccc(N)c(F)c3)c2cc1OC [Compound 14, 4-((6,7-dimethoxyquinolin-4-yl)oxy)-2-fluoroaniline] | 100%
COc1ccc(NC(=O)Nc2ccc(F)cc2F)c(F)c1 [Compound 6, 1-(2,4-difluorophenyl)-3-(2-fluoro-4-methoxyphenyl)urea] | 100%

Test system: P. falciparum 3D7
Test: P. falciparum asexual blood stage viability assay
Format: cell-based
Details: Inactive = no inhibition when tested in triplicate at a single concentration of 1 μM

SMILES | Pf3D7 blood stage activity at single concentration
COc1cc2nccc(Oc3ccc(NC(=O)Nc4cccc(CN5CCN(C)CC5)c4)c(F)c3)c2cc1OC [Compound 42, 1-(4-((6,7-dimethoxyquinolin-4-yl)oxy)-2-fluorophenyl)-3-(3-((4-methylpiperazin-1-yl)methyl)phenyl)urea diformate] | loss of P. falciparum blood stage activity; also recorded: Inactive^e
COc1cccc(NC(=O)Nc2ccc(Oc3ccnc4cc(OC)c(OC)cc34)cc2F)c1 [Compound 54, 1-(4-((6,7-dimethoxyquinolin-4-yl)oxy)-2-fluorophenyl)-3-(3-methoxyphenyl)urea] | Inactive^d
COc1cc2nccc(Oc3ccc(NC(=O)Nc4ccc(C(=O)N5CCN(C)CC5)cc4)c(F)c3)c2cc1OC [Compound 43, 1-(4-((6,7-dimethoxyquinolin-4-yl)oxy)-2-fluorophenyl)-3-(4-(4-methylpiperazine-1-carbonyl)phenyl)urea] | did not observe antiplasmodial activity; also recorded: Inactive^e
COc1cc2nccc(Oc3ccc(NC(=O)Nc4cccc(Br)c4)c(F)c3)c2cc1OC [Compound 50, 1-(3-bromophenyl)-3-(4-((6,7-dimethoxyquinolin-4-yl)oxy)-2-fluorophenyl)urea] | Inactive^d
COc1cc2nccc(Oc3ccc(NC(=O)Nc4cccc(C(C)C)c4)c(F)c3)c2cc1OC [Compound 52, 1-(4-((6,7-dimethoxyquinolin-4-yl)oxy)-2-fluorophenyl)-3-(3-isopropylphenyl)urea] | Inactive^d
COc1cc2nccc(Oc3ccc(NC(=O)Nc4cccc(OC(C)C)c4)c(F)c3)c2cc1OC [Compound 55, 1-(4-((6,7-dimethoxyquinolin-4-yl)oxy)-2-fluorophenyl)-3-(3-isopropoxyphenyl)urea] | Inactive^d
COc1cc2nccc(Oc3ccc(NC(=O)Nc4cccc(C#N)c4)c(F)c3)c2cc1OC [Compound 58, 1-(3-cyanophenyl)-3-(4-((6,7-dimethoxyquinolin-4-yl)oxy)-2-fluorophenyl)urea] | Inactive^d
COc1cc2nccc(Oc3ccc(NC(=O)Nc4ccc(C(=O)N5CCN(C)CC5)c(C(F)(F)F)c4)c(F)c3)c2cc1OC [Compound 47, 1-(4-((6,7-dimethoxyquinolin-4-yl)oxy)-2-fluorophenyl)-3-(4-(4-methylpiperazine-1-carbonyl)-3-(trifluoromethyl)phenyl)urea] | Inactive^e
COc1cc2nccc(Oc3ccc(NC(=O)Nc4cc(C(=O)N5CCN(C)CC5)cc(C(F)(F)F)c4)c(F)c3)c2cc1OC [Compound 48, 1-(4-((6,7-dimethoxyquinolin-4-yl)oxy)-2-fluorophenyl)-3-(3-(4-methylpiperazine-1-carbonyl)-5-(trifluoromethyl)phenyl)urea formate] | Inactive^e
COc1cc2nccc(Oc3ccc(NC(=O)Nc4ccc(CN5CCOCC5)cc4)c(F)c3)c2cc1OC [Compound 60, 1-(4-((6,7-dimethoxyquinolin-4-yl)oxy)-2-fluorophenyl)-3-(4-(morpholinomethyl)phenyl)urea] | Inactive^c
COc1cc2nccc(Oc3ccc(NC(=O)Nc4cccc(C(=O)N5CCN(C)CC5)c4)c(F)c3)c2cc1OC [Compound 44, 1-(4-((6,7-dimethoxyquinolin-4-yl)oxy)-2-fluorophenyl)-3-(3-(4-methylpiperazine-1-carbonyl)phenyl)urea] | did not observe antiplasmodial activity; also recorded: Inactive^e
COc1cc2nccc(Oc3ccc(NC(=O)Nc4cccc(OC(F)F)c4)c(F)c3)c2cc1OC [Compound 56, 1-(3-(difluoromethoxy)phenyl)-3-(4-((6,7-dimethoxyquinolin-4-yl)oxy)-2-fluorophenyl)urea] | Inactive^d

Same assay, conditions: Inactive = no inhibition when tested up to 5 μM in two experiments, dose-response

SMILES | Pf3D7 blood stage activity in dose-response
COc1cc2nccc(Oc3ccc(NC(=O)Nc4cc(C(F)(F)F)ccc4F)c(F)c3)c2cc1OC [Compound 40, 1-(4-((6,7-dimethoxyquinolin-4-yl)oxy)-2-fluorophenyl)-3-(2-fluoro-5-(trifluoromethyl)phenyl)urea] | Inactive^d

Same assay, conditions: compared to parent compound without meta group (64, 66, 67 or 68)

SMILES | fold improvement in P. falciparum blood stage potency on adding CF3 or OCF3
COc1cc2nccc(Oc3ccc(NC(=O)Nc4ccc(CC5CCNCC5)c(OC(F)(F)F)c4)c(F)c3)c2cc1OC [Compound 80, 1-(4-((6,7-dimethoxyquinolin-4-yl)oxy)-2-fluorophenyl)-3-(4-(piperidin-4-ylmethyl)-3-(trifluoromethoxy)phenyl)urea] | 2 fold
COc1cc2nccc(Oc3ccc(NC(=O)Nc4ccc(C=C5CCNCC5)c(OC(F)(F)F)c4)c(F)c3)c2cc1OC [Compound 82, 1-(4-((6,7-dimethoxyquinolin-4-yl)oxy)-2-fluorophenyl)-3-(4-(piperidin-4-ylidenemethyl)-3-(trifluoromethoxy)phenyl)urea] | 2 fold
COc1cc2nccc(Oc3ccc(NC(=O)Nc4ccc(C=C5CCNCC5)c(C(F)(F)F)c4)c(F)c3)c2cc1OC [Compound 81, 1-(4-((6,7-dimethoxyquinolin-4-yl)oxy)-2-fluorophenyl)-3-(4-(piperidin-4-ylidenemethyl)-3-(trifluoromethyl)phenyl)urea] | 2 fold
COc1cc2nccc(Oc3ccc(NC(=O)Nc4ccc(N(C)C5CCN(C)CC5)c(C(F)(F)F)c4)c(F)c3)c2cc1OC [Compound 77, 1-(4-((6,7-dimethoxyquinolin-4-yl)oxy)-2-fluorophenyl)-3-(4-(methyl(1-methylpiperidin-4-yl)amino)-3-(trifluoromethyl)phenyl)urea] | 2 fold
COc1cc2nccc(Oc3ccc(NC(=O)Nc4ccc(OC5CCN(C)CC5)c(OC(F)(F)F)c4)c(F)c3)c2cc1OC [Compound 76, 1-(4-((6,7-dimethoxyquinolin-4-yl)oxy)-2-fluorophenyl)-3-(4-((1-methylpiperidin-4-yl)oxy)-3-(trifluoromethoxy)phenyl)urea] | 4 fold
